Data reported in patent US4603209A, “Fluorescent indicator dyes for calcium ions” (priority 1984, dated 1986).
Where two headings read alike, the source gives them in different places.

What was measured:
[1] = cited from earlier work
[2] = format: binding
Experimental: (§1) Calcium and magnesium affinities of EGTA at high ionic strength were measured by titrating 125 micromole portions of EGTA (Fluka Chemical, puriss grade) with 1.00M KOH (J.T. Baker, low in carbonate). The EGTA was dissolved in 25 ml medium containing 225 mM KCl, 25 mM NaCl, and in some runs 10 mM CaCl2 or 21 mM MgCl2. This solution was stirred in a Radiometer TTA80 Titrator, bubbled continuously with nitrogen, and thermostatted at 18° C. while KOH was added in 0.005 or 0.01 ml aliquots from a ABU80autoburet. The pH was measured with a PHM84 meter, a G2040C electrode and an Ag/AgCl reference electrode connected to the titration solution by a long length of 0.01 inch catheter tubing filled with 3M KCl; this electrode chain was calibrated with phthalate (4.001), phosphate (6.889), and borax (9.245) buffers made according to National Bureau of Standards recipes. The fifty to eighty pH readings in each titration were analyzed by the FORTRAN program SCOGS of Sayce (see reference 36). The resulting proton ionization constants for EGTA were 9.537 and 8.961 with computed uncertainties of ±0.012 and ±0.008 respectively. […] At this ionic strength and any pH>4, the effective stability constant K'Ca may be calculated as (antilog 10.77)·[1 +antilog (3.51-pH)]/[1+antilog (9.537-pH)+antilog (9.537+8.961-2·pH)]in units of liters/mole. […]

[3] = format: binding; remark: listed apart in the source
Experimental: as §1

[4] = calculated from tables of Martell & Smith, read-out: apparent dissociation constant for Ca-EGTA, cited from earlier work
[5] = read-out: apparent dissociation constant for Mg-EGTA, cited from earlier work
[6] = reference 11; cited from earlier work
[7] = reference 11; cited from earlier work; remark: listed apart in the source

## O=C(O)CN(CCOCCOCCN(CC(=O)O)CC(=O)O)CC(=O)O [EGTA, ethylene glycol bis(beta-aminoethyl ether)-N,N,N',N'-tetracetic acid]
[1]; pH 7.11, reference 11, read-out: effective dissociation constant of EGTA for Zn^2+
  Kd: 4.27 nM
[1]; reference 11
  preference for Zn^2+ over Ca^2+: ca. 50 fold
[2]; 225 mm kcl, 25 mm nacl
  proton pKa for Ca.EGTA: 3.51±0.49
[2]; pH 7.02 in 225 mM KCl, 25 mM NaCl at 18° C., freshly determined, read-out: apparent dissociation constant for Ca-EGTA
  Kd: 490 nM
[3]; 225 mm kcl, 25 mm nacl
  proton pKa for Mg.EGTA: 7.885±0.05
[3]; pH 7.02 in 225 mM KCl, 25 mM NaCl at 18°, freshly determined, read-out: apparent dissociation constant for Mg-EGTA
  Kd: 99 mM
[4]; pH 7.00 in 0.1M KCl, 20° C.
  Kd: 380 nM
[4]; pH 7.05 in 130 mM KCl, 20 mM NaCl at 37° C.
  Kd: 214 nM
[4]; pH 7.20 in 0.1M KCl, 20° C.
  Kd: 151 nM
[5]; pH 7.05 in 130 mM KCl, 20 mM NaCl at 37°
  Kd: 8.96 mM
[5]; pH 7.18 in 130 mM KCl at 20°
  Kd: 21 mM
[6]
  preference for Mn^2+ over Ca^2+: ca. 20 fold
[7]
  preference for Fe^2+ over Ca^2+: ca. 8 fold
